# Laboratory results as given in article PMC12474757, “Paving the way for future PSMA inhibitors: insights from comparative preclinical evaluations of structure modifications” (EJNMMI Radiopharmacy and Chemistry, 2025).
# “And” between values parts separate entries of the source, which are not always exact repeats. Equal entries are not always repeated.
# Experiments:
# PSMA (LNCaP cells) = molecular target: T1, PSMA (LNCaP cells) (Homo sapiens, UniProt Q04609); assay: Competition assay on LNCaP cells against [68Ga]Ga-PSMA-617; assay type: binding; conditions: for IC50: competition with 5 nM [68Ga]Ga-PSMA-617, 60 min, 37 °C
# T1 construct: host or cells: LNCaP
# T1 sequence (Q04609 whole entry): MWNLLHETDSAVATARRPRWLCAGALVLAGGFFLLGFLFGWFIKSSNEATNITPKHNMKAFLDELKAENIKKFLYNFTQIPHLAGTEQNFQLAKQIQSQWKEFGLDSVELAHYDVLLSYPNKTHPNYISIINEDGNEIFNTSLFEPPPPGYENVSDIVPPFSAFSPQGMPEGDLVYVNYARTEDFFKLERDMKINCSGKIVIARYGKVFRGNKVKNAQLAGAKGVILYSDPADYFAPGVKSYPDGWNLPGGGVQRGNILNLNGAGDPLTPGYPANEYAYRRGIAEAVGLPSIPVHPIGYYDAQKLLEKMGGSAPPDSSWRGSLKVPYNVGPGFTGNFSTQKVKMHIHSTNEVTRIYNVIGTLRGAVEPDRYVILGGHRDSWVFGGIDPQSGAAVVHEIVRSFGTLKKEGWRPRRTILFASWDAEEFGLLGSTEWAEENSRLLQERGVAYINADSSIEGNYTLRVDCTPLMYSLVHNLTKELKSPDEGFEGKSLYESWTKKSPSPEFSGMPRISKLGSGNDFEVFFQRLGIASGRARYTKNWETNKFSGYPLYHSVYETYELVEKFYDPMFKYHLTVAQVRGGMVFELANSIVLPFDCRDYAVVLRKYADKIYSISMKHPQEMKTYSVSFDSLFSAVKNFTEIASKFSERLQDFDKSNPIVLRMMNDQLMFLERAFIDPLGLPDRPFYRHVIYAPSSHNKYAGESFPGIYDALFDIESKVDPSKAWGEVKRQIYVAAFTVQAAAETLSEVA
# Method: The competition assay, LNCaP cells were seeded into poly-L-lysine coated 24-well plates in amount of 0.5 × 10^6 cells/well 24 h prior to the competition assay. The tested ligands (^68Ga-P15, ^68Ga-P16 and ^68Ga-P19) were added to the wells in concentrations 0, 1, 5, 10, 25, 50, 100, 500, 1000 and 5000 nM in triplicates. Afterwards, ^68Ga-labelled PSMA-617 was added to each well so its final concentration was 5 nM. All the ligands in this assay were dissolved in the buffer containing 25 mM Tris-HCl, 5.4 mM KCl, 1.8 mM CaCl2, 0.8 mM MgSO4, 5 mM glucose, and 140 mM NaCl in H2O (pH adjusted to 7.4). ^68Ga-PSMA-617 was incubated on cells for 60 min at 37 °C followed by its removal and washing the cells with PBS. Finally, the cells were disintegrated using 0.1 M NaOH and transferred into the scintillation vials for the gamma counting. The IC50 values were calculated by fitting the data using a nonlinear regression algorithm (GraphPad PRISM 7.0) and the data were assessed by t-test.
# [1] = Stability in human plasma/serum (radiochemical purity by HPLC); assay type: in vitro ADME; conditions: for Stability in human serum (%): radiochemical purity, 37 °C, n = 1
# Method: (§1) Quality control, i.e. radiochemical purity, of the ^68Ga-labelled PSMA inhibitors was evaluated by analytical high performance liquid chromatography (HPLC; Dionex UltiMate 3000, Thermo Scientific, Waltham, Massachusetts, USA) using the following equipment: ACE 3 C18 column; 150 × 3 mm, 3 μm (Advanced Chromatography Technologies Ltd, Aberdeen, UK), with gradient elution A: H2O/acetonitrile (ACN); B:0.1% trifluoroacetic acid (TFA)/H2O: 0–3 min, 0% ACN; 3–10 min, 0 − 50% ACN; 10–13 min, 50 − 80% ACN; 13–15 min, 80–0% ACN, for 15 min at a flow rate of 1 mL/min. Radiometric detection was performed using a GABI Star radiodetector (Raytest GmbH, Straubenhardt, Germany) and for chromatogram quantification Chromatography Data System (CDS) - Chromeleon software (Thermo Scientific, USA) was used. The actual sample injection was performed using a Hamilton microinjector (Hamilton, USA).
# Plasma stability was determined as follows. To 100 µL of ⁶⁸Ga-P15 with radioactivity of 45 kBq/100 µL, 400 µL of human plasma was added and mixed. The mixture was incubated at 37 °C and 100 µL samples were taken at 30, 60 and 120 min. These samples were then mixed with 200 µL of acetonitrile and placed on a shaker for 1 min. The sample was then centrifuged at 15,000 rpm for 3 min. After centrifugation, the supernatant was collected for radiochemical purity analysis by HPLC. The same procedure was applied when determining plasma stability of ⁶⁸Ga-P16, ⁶⁸Ga-P19, and ⁶⁸Ga-PSMA-617.
# [2] = Octanol/water partition coefficient (log P); assay type: physicochemical; conditions: octanol/PBS; mean ± SD n = 6
# Method: Octanol/water partition coefficient (P) was determined as described before (Petrik et al. [2012]). Briefly, 600 µL PBS was added to the total volume of the ⁶⁸Ga-P15. New tube was filled with 50 µL of the above-mentioned solution, 500 µL octanol and 450 µL PBS. Five more samples were prepared in this way and then placed on an orbital shaker for 20 min. The samples were then centrifuged at 15,000 rpm for 1 min. After centrifugation, two samples were taken from each tube, one from the octanol and the other from the aqueous phase. The radioactivity of these samples was measured using an automated gamma computer and the formula log P = log(Aoctanol/AH2O) was employed to calculate log P. The same procedure was applied when determining the partition coefficient of ⁶⁸Ga-P16, ⁶⁸Ga-P19, and ⁶⁸Ga-PSMA-617.
# [3] = Stability in human plasma/serum (radiochemical purity by HPLC); assay type: in vitro ADME; conditions: 37 °C, incubation time 0 min, n = 1
# human plasma proteins = assay: Binding to human plasma proteins; assay type: in vitro ADME; conditions: for Protein binding (%): human plasma, 37 °C, n = 2; for Binding rate to human plasma proteins: overall statement, incubation up to 120 min
# Method: Binding to human plasma proteins was determined following this procedure: 10 µL of the ⁶⁸Ga-P15 with radioactivity of 45 kBq/100 µL was mixed with 190 µL of human plasma. The sample was then incubated at 37 °C. After 0, 30, 60 and 120 min 25 µL of the sample was collected, applied to the appropriate column and centrifuged at 2000 g for 2 minutes. The radioactivity of the samples was then measured using a gamma counter 2480 Wizard^2 (PerkinElmer, Waltham, MA, USA), and then the binding to plasma proteins was calculated using the following formula % plasma protein binding = (Aelution/Atotal)×100. The same procedure was applied when determining binding to plasma proteins of ⁶⁸Ga-P16, ⁶⁸Ga-P19, and ⁶⁸Ga-PSMA-617.
# [4] = Radiochemical stability in physiological pH water environment; assay type: physicochemical; conditions: radiochemical purity, pH 7, 37 °C, n = 1
# Method: as §1
# Radiochemical stability in a physiological pH water environment was determined as follows: 100 µL of acetate buffer (1.1 mol/L) was added to the labelled preparation and the pH was then checked with a pH indicator paper to be 7. The mixture was further incubated at 37 °C and after 30, 60 and 120 min, 10 µL aliquot was used for HPLC analysis of radiochemical purity.
IC50 (PSMA (LNCaP cells)) [nM],"Radiochemical purity in human blood serum/plasma ([1]; 37 °C, 30, 60 and 120 min)",Stability in human serum (%) ([1]; incubation time 30 min),Stability in human serum (%) ([1]; incubation time 60 min),Stability in human serum (%) ([1]; incubation time 120 min),Log P [2],Stability in human serum (%) [3] [%],Protein binding (%) (human plasma proteins; incubation time 0 min),Protein binding (%) (human plasma proteins; incubation time 30 min),Protein binding (%) (human plasma proteins; incubation time 60 min),Protein binding (%) (human plasma proteins; incubation time 120 min),Binding rate to human plasma proteins (human plasma proteins) [%],Stability in Physiological pH (%) ([4]; incubation time 0 min),Stability in Physiological pH (%) ([4]; incubation time 30 min),Stability in Physiological pH (%) ([4]; incubation time 60 min),Stability in Physiological pH (%) ([4]; incubation time 120 min),IC50 fold higher than that of [68Ga]Ga-P16 (PSMA (LNCaP cells); competition assay) [fold],Structure (SMILES)
4,above 97%,98.8,98.3,97.3,"–3,07 ± 0,87",99.0,10% and 10.2%,10.9%,10.8%,13% and 13.4%,≤ 40,99.3,99.1,99.3,99.3,,O=C([O-])CN1CCN(CC(=O)[O-])CCN(CC(=O)N[C@H]2CC[C@H](NC(=O)[C@H](Cc3ccc4ccccc4c3)NC(=O)CC[C@H](NC(=O)N[C@@H](CCC(=O)O)C(=O)O)C(=O)O)CC2)CCN(CC(=O)[O-])CC1.[68Ga+3] [[^68Ga]Ga-P16]
97.3,,98.9,99.8,99.4,"–3,71 ± 0,14",99.0,26.7%,27.0%,29% and 29.4%,40% and 39.9%,≤ 40,99.0,98.8,98.7,99.2,~25,O=C([O-])CN1CCN(CC(=O)[O-])CCN(CC(=O)N[C@H]2CC[C@H](NC(=O)[C@@H](Cc3ccc4ccccc4c3)NC(=O)CC[C@H](NC(=O)N[C@@H](CCC(=O)O)C(=O)O)C(=O)O)CC2)CCN(CC(=O)[O-])CC1.[68Ga+3] [[^68Ga]Ga-P15]
95.6,,99.3,99.8,99.9,"–3,41 ± 0,13",99.0,56.6%,59% and 58.8%,58% and 57.7%,58% and 58.2%,,99.8,99.5,99.5,99.6,,O=C([O-])CN1CCN(CC(=O)[O-])CCN(CC(=O)NCc2ccc(C(=O)N[C@H](C(=O)NCCCC[C@H](NC(=O)N[C@@H](CCC(=O)O)C(=O)O)C(=O)O)C(c3ccccc3)c3ccccc3)cc2)CCN(CC(=O)[O-])CC1.[68Ga+3] [[^68Ga]Ga-P19]
